In a melting point compilation (Tetko et al.; mined from patent text by program, amines drawn as free bases though some values may be those of a salt) one finds melting point data, which are given here for 64 compounds.

Molecules are shown by their SMILES.

Usually melting point stands for the temperature, or range, at which the solid turns liquid.

With `Cc1ccccc1-c1cn2c(n1)-c1ccccc1Nc1ncccc1-2`, the melting point is 215 to 217 °C.
In turn, `O=C(O)c1ccc2oc3ccccc3c(=O)c2c1` came in with a melting point of more than 280 °C.
The figure for `O=C(O)CCC(=NOCc1ccc(OCc2ccccc2)cc1)c1ccccc1` is 86 to 87 °C.
The figure for `Clc1ccc(-c2cc(C3=CCN(Cc4c[nH]c5ncccc45)CC3)on2)cc1` is 245 to 247 °C; for `COc1ccc(N2CCN(C)[C@@H]3Cc4ccccc4[C@H]32)c(CO)c1` (relative stereo) it is 179 to 183 °C.
The figure for `O=C(O)CCc1cn(Cc2ccc3cc(OCc4ccccc4F)ccc3c2)cc1-c1ccccc1` is 143 to 144 °C; for `CCCCCCCC(c1cc(C)ccc1O)c1cc(C)ccc1O` it is 108 to 109 °C; for `O=C(CCCCCCCCCCC(=O)Oc1cc(O)cc(O)c1)Oc1cc(O)cc(O)c1` it is 140 to 145 °C.
The compound `CCOC(=O)c1c(CN(CC)CC)nc2cc(OC)c(OC)cc2c1-c1ccc(Cl)cc1` showed a melting point of 82 to 83 °C.
Under `Clc1ccc(Cn2cc(CN3CCC(c4ccccc4)(c4ccccc4)CC3)nn2)cc1` stands 148 °C.
With `COc1ccc2c3c1OC1C(O)C(C)(C)C(C)C4C(C2)N(C)CCC314` (centres undefined), the melting point fell in the range of 110 to 112 °C.
`Cc1sccc1-c1nc2c3ccsc3ccn2c1N` yielded a melting point of 161 to 162 °C.
The figure for `COc1ccc(OCCCCCCc2c(C)n[nH]c2O)c(Cl)c1` is 145 to 146 °C; for `N#Cc1cccc(Oc2ccccc2N)c1C#N` it is 132 °C.
Consider `COc1ncc(C=O)cc1Cl`, for which the melting point was 152 °C.
The figure for `COc1ccc(C(=O)Nc2ccc(Cl)c(Cl)c2)cc1Nc1cccc(C(F)(F)F)c1` is 154 to 155 °C.
Under `CCCCCOC(=O)c1cc(O)c2c(n1)c(C)cc1c(O)cc(C(=O)OCCCCC)nc12` stands 137 to 139 °C; under `C[C@@H]1N=C(c2ccccc2)c2cc([N+](=O)[O-])ccc2N(C)C1=O`, 84 to 85 °C.
The figure for `CCOC(=O)Cn1nc2ccc(Cl)nn2c1=O` is 114 to 115 °C; for `O=C(CCCCCl)NC1c2ccccc2CSc2ccccc21` (centres undefined) it is 155 to 156 °C.
For `CC1(C)c2cc(C#N)ccc2OC1O` (centres undefined), the melting point lay in the range of 103 to 122 °C.
Under `CCn1cc(C(=O)O)c(=O)c2cc(F)c(N3CCC(CN)C3)nc21` (centres undefined) stands 217 to 218 °C.
Under `O=C1C(CCO)Oc2ccccc2N1Cc1cccc([N+](=O)[O-])c1` (centres undefined) stands 128 to 130 °C; under `CS(=O)c1ccc2c(c1)OC(C)(C)O2` (centres undefined), 87 to 88 °C.
Under `COc1ccc(-c2nc(Cl)nc(Cl)n2)cc1` stands 131 to 134 °C; under `COc1ccc(C(=O)C=Cc2ccc(SC)cc2)cc1`, 112 °C.
Turning to `CCCCCCNC(=O)CSc1nc(Cl)cc(Nc2cccc(C)c2C)n1`, the melting point lay within 116 to 118 °C.
For `CC(=O)NCc1c(C)cc(CCl)cc1C`, the melting point is 193 to 194 °C.
Under `COCCc1ccc(-c2ccc(I)cc2)cc1` stands 97 to 99.4 °C; under `O=C(O)COc1cccc(-c2ccc(Cl)c(C(=O)NCC34CC5CC(CC(C5)C3)C4)c2)c1`, 99 to 101 °C; under `CC(=O)Nc1ccc(S(=O)(=O)Nc2nncs2)cc1`, 214 to 215 °C.
The figure for `CN1CCc2c(N3CCCC3)c(F)c(N)c3c(=O)c(C(=O)O)cn1c23` is more than 290 °C.
Under `Cc1nc(O)cc(C(C)(C)C)n1` stands 131 to 132 °C.
As for `CC(C)Oc1cc(N2NC(C)(C)NC2=O)c(Cl)cc1Cl`, the melting point was in the range of 162 to 163 °C.
Under `CC(=CC(=O)O)c1ccc2[nH]cc(-c3cc(C(C)(C)C)cc(C(C)(C)C)c3OCC(F)F)c2c1` stands 135 to 145 °C; under `Cc1csc2[nH]c(=O)n(Cc3ccc(Br)cc3F)c(=O)c12`, 296 to 298 °C; under `CCCN1C(=O)N2C(=NCC2c2ccccc2)c2[nH]cnc21` (centres undefined), 258 to 264 °C.
With `CN(C)C1=NC(=O)C(Cc2cccc(-c3ccc(O)c(C45CC6CC(CC(C6)C4)C5)c3)c2)S1` (centres undefined), the melting point was in the range of 243 to 246 °C.
The figure for `O=c1oc(-c2ccccc2)cc(O)c1Oc1ccccc1` is 215 to 219 °C.
The figure for `CCCCc1nc(C(F)(F)CCC)nn1Cc1ccc(-c2ccccc2-c2nnn[nH]2)cc1` is 165 to 168 °C; for `O=C(O)COc1cccc(-c2c3ccccc3c(Br)c3sc4ccccc4c23)c1` it is 180 to 181 °C.
Under `O=C1C(c2ccccc2)N(c2ccc(Oc3ccccc3)cc2)C(=S)N1c1ccccc1` (centres undefined) stands 100 °C; under `Cc1ccc(C(O)C2C(c3ccccc3)CC(=O)N2C)s1` (centres undefined), 185 to 188 °C; under `CS(=O)(=S)OCc1c(F)c(F)c(F)c(F)c1F` (centres undefined), 64.2 to 64.7 °C.
Consider `O=C(NCc1ccn(C2=CC3=C(CC2)CCc2[nH]c(=O)c(=O)n(O)c23)c1)Nc1ccccc1`, for which the melting point is more than 250 °C.
Compound `Cc1c(C)c2c(c(C3CC(=O)C=C(O)C3)c1C)OCC2` (centres undefined) returned a melting point of 264 °C.
The figure for `C=CCOC(=O)[C@H](Cc1ccccc1)NC(=O)C(F)(F)F` is 44 to 45 °C; for `CCC(=O)NC1CCc2cc(OC)ccc2C1` (centres undefined) it is 125 °C; for `CC(C)(C)OC(=O)CN1CCN2C(=O)N(c3cc(Cl)cc(Cl)c3)C(=O)C2(Cc2ccc(Br)cc2)C1` (centres undefined) it is 74.7 °C.
Under `Oc1ccc(Nc2cnc3cnc(-c4ccc(O)cc4)nc3c2)cc1` stands 168 to 170 °C; under `CC(C)CNC(=O)NS(=O)(=O)c1ccc(CCNC(=O)N2CCCCC2=O)cc1`, 179 to 181 °C; under `CCOC(=O)/C=C/c1ccc(O)c(Cl)c1`, 104 to 106 °C.
The figure for `CN(C)S(=O)(=O)c1ccc(Oc2ccc([N+](=O)[O-])cc2C#N)cc1` is 222 to 223 °C; for `Nc1nc(Cl)nc(N(CCC(=O)O)Cc2ccc(Cl)c(Cl)c2)n1` it is 105 to 110 °C.
With `CCn1nc2c(N)nc3ccccc3c2c1CC1(F)CCN(S(C)(=O)=O)CC1`, the melting point fell in the range of 269 to 271 °C.
Compound `CCOC(=O)C(=CNc1cc(C)nn1-c1ccccn1)C(=O)OCC` came in with a melting point of 128 to 131 °C.
The figure for `CC(=O)NS(=O)(=O)c1ccc(NC(=O)c2ccccc2SSc2ccccc2C(=O)Nc2ccc(S(=O)(=O)NC(C)=O)cc2)cc1` is 180 to 182 °C.
In turn, `N#Cc1ccn2c1CSC2c1cccnc1` (centres undefined) yielded a melting point of 110 °C.
Turning to `COc1cc(OCc2cccnc2)ccc1/C=C/c1cc(/C=C/c2ccc3[nH]ccc3c2)n[nH]1`, the melting point was in the range of 127 to 135 °C.
For the compound `O=C(O)c1nc2c(=O)[nH]c3cc(C(F)(F)F)ccc3n2c1Cn1cnc(Cl)c1Cl`, the melting point lay in the range of 213 to 215 °C.
The figure for `COc1cc(N)ccc1S(=O)(=O)Nc1ccccc1C` is 189 to 191 °C; for `CC(CNC(=O)OC(C)(C)C)n1nnnc1S` (centres undefined) it is 156 to 158 °C; for `OC1C(COC2CC2)OC(n2cnc3c(NC4CCCC4)nc(Cl)nc32)C1O` (centres undefined) it is 104 to 106 °C.
Under `CC(=O)NC(C)C(=O)NCC(=O)O` (racemic) stands 79 to 82 °C.
